{"source": "patent US7022836B2", "about": "“Methods for producing and transforming cassava protoplasts” (National Starch and Chemical Investment Holding Corporation, priority 1999, dated 2006)", "test_system": "cassava leaf explants", "test": "Primary somatic embryogenesis from leaf explants (mature embryos per cultured leaf explant)", "assay_type": "cell-based", "conditions": "for leaf explants that formed ME / number of ME/CLE: maximum", "experimental": "The procedure to obtain FEC is outlined in FIG. 1. 1t starts with the induction of primary embryos. Primary embryos are formed in a two step procedure. In the first step explants are cultured on medium supplemented with salts and vitamins (preferably Murashige and Skoog (1962)), a carbohydrate source (for example 20 g/l sucrose) and an auxin (e.g. 1–8 mg/l picloram, or dicamba or 2,4-D) for the initiation of embryos. After 10 to 15 days on this first medium bipolar torpedo shaped embryos are formed. […] After transfer of the explants with torpedo shaped embryos to a step 2 medium (the same medium as step 1 but without an auxin, with eventually the addition of cytokinins) the torpedo shaped embryos become mature.\nIn the presently used protocol there is genotypic variation in the number of mature embryos formed per cultured explant. The genotypes M.Col1505, M.Col22 and Gading gave the highest numbers of mature embryos per cultured leaf explant (ME/CLE). However, the number of mature embryos formed was low. In M.Col22 a maximum of 22% of the leaf explants isolated from in vitro grown plants and cultured on a step 1 medium with 4 mg/l 2,4-D, formed ME with a maximum number of 0.8 ME/CLE. On a step 1 medium with 8 mg/l 2,4-D a maximum of 49% of the leaf explants formed ME with a maximum number of 3.5 ME/CLE.\nMathews et al. (1993) improved the efficiency of primary embryogenesis in the genotype M.Co11505 by transferring explants after 15 days of step 1 medium to a growth regulator-free medium supplemented with 0.5% charcoal. On this medium maturation was improved and as a result the number of mature embryos increased from 0.4 in the control to 3,4 ME/CLE. The best results were obtained if donor plants were pretreated with auxins as 2,4-D or picloram or Dicamba. For this, plants were grown in liquid MS20 medium and supplied with the auxin (final concentration 8 mg/l) after 12 days of growth. Two days later leaf explants were isolated of the donor plants and cultured on step 1 medium with 8 mg/l 2,4-D, picloram or Dicamba.", "key": {"[1]": {"conditions": "M.Col22, step 1 medium with 4 mg/l 2,4-D"}, "[2]": {"conditions": "M.Col22, step 1 medium with 8 mg/l 2,4-D"}}, "note": "Marks after values point to notes of the source that are not given here."}
{"compound": "O=C(O)COc1ccc(Cl)cc1Cl", "note": "[2,4-D, 2,4-dichlorophenoxyacetic acid]", "values": [{"measurement": "leaf explants that formed ME", "setting": "[1]", "result": "≤ 22", "unit": "%"}, {"measurement": "number of ME/CLE", "setting": "[1]", "result": "≤ 0.8", "unit": "ME/CLE"}, {"measurement": "leaf explants that formed ME", "setting": "[2]", "result": "≤ 49", "unit": "%"}, {"measurement": "number of ME/CLE", "setting": "[2]", "result": "≤ 3.5", "unit": "ME/CLE"}, {"measurement": "primary mature embryos per cultured leaf explant after 2,4-D pretreatment", "setting": "genotype M.Col22, pretreatment yes", "result": "9.4 # mature embryos per cultured leaf explant"}, {"measurement": "primary mature embryos per cultured leaf explant after 2,4-D pretreatment", "setting": "genotype TMS 4(2)1244, pretreatment yes", "result": "0 # mature embryos per cultured leaf explant"}, {"measurement": "primary mature embryos per cultured leaf explant after 2,4-D pretreatment", "setting": "genotype TMS 30001, pretreatment yes", "result": "0 # mature embryos per cultured leaf explant"}, {"measurement": "primary mature embryos per cultured leaf explant after 2,4-D pretreatment", "setting": "genotype TMS 30211, pretreatment yes", "result": "0 # mature embryos per cultured leaf explant"}, {"measurement": "primary mature embryos per cultured leaf explant after 2,4-D pretreatment", "setting": "genotype TMS 30395, pretreatment yes", "result": "0.1 # mature embryos per cultured leaf explant"}, {"measurement": "primary mature embryos per cultured leaf explant after 2,4-D pretreatment", "setting": "genotype TMS 30555, pretreatment yes", "result": "0.7 # mature embryos per cultured leaf explant"}, {"measurement": "primary mature embryos per cultured leaf explant after 2,4-D pretreatment", "setting": "genotype TMS 30572, pretreatment yes", "result": "0 # mature embryos per cultured leaf explant"}, {"measurement": "primary mature embryos per cultured leaf explant after 2,4-D pretreatment", "setting": "genotype TMS 50395, pretreatment yes", "result": "<0.1 # mature embryos per cultured leaf explant"}, {"measurement": "primary mature embryos per cultured leaf explant after 2,4-D pretreatment", "setting": "genotype TMS 60444, pretreatment yes", "result": "1.1 # mature embryos per cultured leaf explant"}, {"measurement": "primary mature embryos per cultured leaf explant after 2,4-D pretreatment", "setting": "genotype TMS 60506, pretreatment yes", "result": "<0.1 # mature embryos per cultured leaf explant"}, {"measurement": "primary mature embryos per cultured leaf explant after 2,4-D pretreatment", "setting": "genotype TMS 90059, pretreatment yes", "result": "<0.1 # mature embryos per cultured leaf explant"}, {"measurement": "primary mature embryos per cultured leaf explant after 2,4-D pretreatment", "setting": "genotype TMS 90853, pretreatment yes", "result": "0.2 # mature embryos per cultured leaf explant"}]}
